Source: US12162901B2, “N-acetylated sialic acids and related sialosides” (priority 2016, dated 2024)

Columns and labels:
[1] = molecular target: T1, BiNanH2 (Bifidobacterium longum, UniProt A0ACD7UU12); assay: Sialidase substrate specificity of Leg glycosides (HPLC/capillary electrophoresis), BiNanH2; type: biochemical, Bifidobacterium infantis; details: 37° C., 16 hs, pH 5.0
T1 sequence (A0ACD7UU12 1-394): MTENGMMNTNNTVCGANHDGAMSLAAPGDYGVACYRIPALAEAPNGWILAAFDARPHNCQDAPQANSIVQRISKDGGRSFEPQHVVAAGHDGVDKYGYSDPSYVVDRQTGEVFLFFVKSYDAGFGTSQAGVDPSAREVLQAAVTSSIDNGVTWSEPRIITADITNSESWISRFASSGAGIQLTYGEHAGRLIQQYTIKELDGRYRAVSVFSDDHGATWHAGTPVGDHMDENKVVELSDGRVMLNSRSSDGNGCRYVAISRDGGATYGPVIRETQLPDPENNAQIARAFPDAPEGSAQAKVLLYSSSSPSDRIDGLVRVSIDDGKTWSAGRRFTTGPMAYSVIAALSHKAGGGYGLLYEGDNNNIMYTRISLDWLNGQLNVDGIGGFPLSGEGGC

[2] = molecular target: T2, V. cholerae sialidase (Vibrio cholerae serotype O1, UniProt P0C6E9); assay: Sialidase substrate specificity of Leg glycosides (HPLC/capillary electrophoresis), V. cholerae sialidase; type: biochemical; details: pH 5.5
T2 construct: purchased Roche

[3] = molecular target: SpNanC (Streptococcus pneumoniae, UniProt A0A0H2UQE4); assay: Sialidase substrate specificity of Leg glycosides (HPLC/capillary electrophoresis), SpNanC; type: biochemical; details: 37° C., 16 hs, pH 6.5
[4] = molecular target: T3, wild-type PmST1 (α2-3-sialidase activity) (Pasteurella multocida, UniProt Q15KI8); assay: Sialidase substrate specificity of Leg glycosides (HPLC/capillary electrophoresis), PmST1; type: biochemical; details: 37° C., 16 hs, CMP (0.4 mM), pH 5.5
T3 construct: made in house

[5] = molecular target: T4, SpNanA (Streptococcus pneumoniae, UniProt P62575); assay: Sialidase substrate specificity of Leg glycosides (HPLC/capillary electrophoresis), SpNanA; type: biochemical; details: 37° C., 16 hs, pH 6.0
T4 construct: made in house

[6] = molecular target: C. perfringens sialidase (CpNanH) (Clostridium perfringens, UniProt P10481); type: biochemical; details: 37° C., 16 hs, pH 5.0
[7] = tested on: A. ureafaciens sialidase; assay: Sialidase substrate specificity of Leg glycosides (HPLC/capillary electrophoresis), A. ureafaciens sialidase; type: biochemical, Arthrobacter ureafaciens; details: pH 5.5
[8] = molecular target: T5, SpNanB (Streptococcus pneumoniae serotype 4, UniProt Q54727, E68D/K536E/K577E/N393D/S59P); assay: Sialidase substrate specificity of Leg glycosides (HPLC/capillary electrophoresis), SpNanB; type: biochemical; details: 37° C., 16 hs, pH 6.0
T5 construct: made in house

[9] = molecular target: T6, human cytosolic sialidase hNEU2 (Homo sapiens, UniProt Q9Y3R4); assay: Sialidase substrate specificity of Leg glycosides (HPLC/capillary electrophoresis), hNEU2; type: biochemical; details: 37° C., 16 hs, pH 5.0
T6 construct: made in house
T6 sequence (Q9Y3R4 whole entry): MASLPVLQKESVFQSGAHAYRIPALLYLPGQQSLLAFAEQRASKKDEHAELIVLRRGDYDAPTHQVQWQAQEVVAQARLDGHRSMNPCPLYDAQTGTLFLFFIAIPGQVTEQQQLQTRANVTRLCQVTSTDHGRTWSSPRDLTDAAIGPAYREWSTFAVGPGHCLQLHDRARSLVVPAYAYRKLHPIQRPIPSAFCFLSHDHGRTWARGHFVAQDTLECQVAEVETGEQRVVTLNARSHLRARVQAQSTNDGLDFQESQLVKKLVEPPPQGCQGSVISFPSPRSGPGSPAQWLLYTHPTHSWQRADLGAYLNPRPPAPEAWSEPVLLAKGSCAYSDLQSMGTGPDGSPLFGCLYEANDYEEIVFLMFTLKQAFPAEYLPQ

[10] = molecular target: T7, PmST1 (α2-3-sialidase activity) (Pasteurella multocida, UniProt Q15KI8); assay: Kinetic studies for PmST1 α2-3-sialidase activity (HPLC); type: biochemical; details: 0.4 mM CMP
T7 construct: made in house
Method: Kinetic studies for PmST1 were performed in duplicates at 37° C. for 10 min. […] The reactions were stopped by adding 20 μL of pre-chilled ethanol. The mixtures were then centrifuged and the supernatants were analyzed by the HPLC system described above for sialidase substrate specificity studies assays. Apparent kinetic parameters were obtained by varying substrate concentrations from 0.1-40 mM (0.1, 0.2, 0.4, 1, 2, 4, 10, 20, and 40 mM) and fitting the data (the average values of duplicate assay results) into the Michaelis-Menten equation using Grafit 5.0.

[11] = tested on: BJA-B K20 cells; assay: Feeding of free sialic acids to BJA-B K20 cells, PToV probes, flow cytometry; type: cell-based, human
[12] = tested on: human CD22-Fc/Siglec-2; assay: Feeding of free sialic acids to BJA-B K20 cells, probing with human CD22-Fc, flow cytometry; type: cell-based; details: 3 mM, 3 days of feeding
Method: Cell Culture and Sugar Supplementation.
Flow Cytometry. Cells were washed with PBS and incubated with 10 μg/mL of PToV probes in PBS with 1% BSA and 10 mM EDTA for 30 minutes on ice. Subsequently, cells were washed with PBS and incubated with PE goat anti-human IgG antibody for 30 minutes on ice. After an additional washing step, the cells were analyzed by FACSCalibur (BD).
After 3 days of feeding, BJA-B K20 cells were probed with human CD22-Fc/Siglec-2 to detect ligands (FIG. 7). […] However, when the cells were grown in the presence of Neu5Ac9NAc, the expression of the CD22 ligand was minimal (FIG. 7C). […] This supports previous observations that human CD22-Fc recognizes α2-6-linked sialosides with Neu5Ac or N-glycolylneuraminic acid (Neu5Gc) as the preferred naturally existing sialic acid form and 9-O-acetyl modification on sialic acid blocks the binding.

[13] = tested on: BJA-B K20 cells; assay: Feeding of free sialic acids to BJA-B K20 cells, DMB derivatization and HPLC of membrane sialic acids; details: 1 mM for 3 days; sialic acids released with Vibrio cholerae neuraminidase
[14] = tested on: porcine torovirus hemagglutinin-esterase (PToV-P4-Fc, esterase inactivated); assay: Sialoglycan microarray binding of PToV-P4-Fc (esterase inactive); details: without esterase treatment (FIG. 3A)
[15] = De-O-acetylation of 9-OAc glycan during glycan microarray process (DMB derivatization, HPLC); type: physicochemical
[16] = tested on: PToV-P4-Fc (esterase active); assay: Treatment of glycan microarray with esterase active PToV, then probe binding; type: biochemical, porcine torovirus; details: 20 μg/mL PToV-P4-Fc (esterase active), 2 h, RT; FIG. 3B vs FIG. 3A
Method: To assure the quality of the printed slides, one or two slides were used for quality control using antibodies, lectins and serum samples with known glycan binding specificity. For glycan array binding, slides were fitted in a multi-well microarray hybridization cassette (AHC4X8S, ArrayIt, Sunnyvale, CA, USA) to divide into 8 subarrays. The subarrays were blocked with Ovalbumin (1% w/v) in PBS (pH 7.4) for 1 h at RT, with gentle shaking. For the esterase activity studies on the array, after removing the blocking solution, slides were first treated with 20 μg/mL PToV-P4-Fc (esterase active) in blocking buffer for 2 h at RT and then washed with PBS in 0.1% Tween 20 and then PBS (10 min/wash with shaking). Subsequently, diluted protein samples in blocking solution with various concentrations were added to each subarray (both esterase treated and non-treated slides). After incubating the protein samples for 2 h at RT with gentle shaking, the slides were washed with PBS in 0.1% Tween 20 and then PBS (10 min/wash with shaking). […] The data were further analyzed with Excel. […] The binding specificity to glycoconjugates for each protein was plotted based on the RFU (Relative Fluorescence Units), average fluorescence value for 4 replicates, versus glycan IDs. The standard deviations were calculated and the error bars were found for each glycan binding. […]

[17] = tested on: human Siglec-9-Fc (hSiglec-9); assay: Sialoglycan microarray binding of human Siglec-9-Fc; details: without esterase treatment (FIG. 3A)
Method: The synthesized glycan Neu5Ac9NAcα3Galβ4GlcβProNH2 was used in a glycan library for glycan microarray studies. Glycan microarrays were fabricated using epoxide-derivatized slides (Corning by Thermo Fisher Scientific) and Arrayit SpotBot® Extreme Microarray Spotter. The arrays were printed with Stealth SMP3 microarray spotting pins from ArrayIt (Sunnyvale, CA, USA) generating 100 μm diameter spots. 4 pins were used; with each pin printing 4 replicate spots/well. The glycoconjugates were prepared at 100 μM concentration in an optimized printing buffer (300 mM phosphate buffer, pH 8.4). They were then distributed into a 384-well source plate in 20 μL per well. To monitor printing quality, 4 replicate-wells of human IgG (Jackson ImmunoResearch) was used at 100 μg/ml (in PBS) for each printing-pin. One complete array was printed on each slide (within approx 12 hour/˜28 slides). The humidity level in the arraying chamber was maintained at about 60-65% during printing. Printed slides were left on spotter deck overnight, allowing humidity to drop to ambient levels. Printed glycan microarray slides were blocked by 50° C. pre-warmed blocking solution (0.1 M Tris-HCl, 0.05 M ethanolamine, pH 9.0, 1 h). They were then washed twice with 50° C. pre-warmed water and dried. Slides were packed, vacuum-sealed and stored at RT until used.
To assure the quality of the printed slides, one or two slides were used for quality control using antibodies, lectins and serum samples with known glycan binding specificity. For glycan array binding, slides were fitted in a multi-well microarray hybridization cassette (AHC4X8S, ArrayIt, Sunnyvale, CA, USA) to divide into 8 subarrays. The subarrays were blocked with Ovalbumin (1% w/v) in PBS (pH 7.4) for 1 h at RT, with gentle shaking. […] The data were further analyzed with Excel. […] The binding specificity to glycoconjugates for each protein was plotted based on the RFU (Relative Fluorescence Units), average fluorescence value for 4 replicates, versus glycan IDs. The standard deviations were calculated and the error bars were found for each glycan binding. […]

## C[C@@H](O)[C@@H](N=[N+]=[N-])C1O[C@@](OC2C(O)[C@H](Oc3ccc([N+](=O)[O-])cc3)OC(CO)[C@@H]2O)(C(=O)O)CC(O)[C@H]1N=[N+]=[N-] (stereo partly drawn) [3-13, Leg5,7diN3α2-3GalβpNP]
[1]
  activity of BiNanH2 for the compound: did not show activity
[2]
  activity of V. cholerae sialidase for the compound: did not show activity
[3]
  activity of SpNanC for the compound: did not show activity
[4]
  substrate for the α2-3-sialidase activity of wild-type PmST1: not
[5]
  activity of SpNanA for the compound: did not show activity
[6]
  activity of C. perfringens sialidase (CpNanH) for the compound: did not show activity
[7]
  activity of A. ureafaciens sialidase for the compound: did not show activity
[8]
  activity of SpNanB for the compound: did not show activity
[9]
  activity of hNEU2 for the compound: did not show activity

## CC(=O)N[C@@H]1C(O)C[C@](OC2C(O)[C@H](Oc3ccc([N+](=O)[O-])cc3)OC(CO)[C@@H]2O)(C(=O)O)OC1[C@H](NC(C)=O)[C@@H](C)O (stereo partly drawn) [3-19, Leg5,7Ac2α2-3GalβpNP]
[10]
  α2-3-sialidase activity of PmST1, fold less efficient than for Neu5Acα2-3GalβpNP: about 30 fold
[1]
  activity of BiNanH2 for the compound: did not show activity
[2]
  activity of V. cholerae sialidase for the compound: did not show activity
[3]
  activity of SpNanC for the compound: did not show activity
[5]
  activity of SpNanA for the compound: did not show activity
[6]
  activity of C. perfringens sialidase (CpNanH) for the compound: did not show activity
[7]
  activity of A. ureafaciens sialidase for the compound: did not show activity
[8]
  activity of SpNanB for the compound: did not show activity
[9]
  activity of hNEU2 for the compound: did not show activity

## CC(=O)N[C@H]1[C@H]([C@H](O)[C@H](O)COC(C)=O)OC(O)(C(=O)O)C[C@@H]1O (stereo partly drawn) [Neu5,9Ac2, 9-O-acetyl-N-acetylneuraminic acid]
[11]; 1 mM for two days, then sugar removed, monitored for 4 days with PToV (esterase inactive) probe
  turnover on cell surface: faster than that of Neu5Ac9NAc
[11]; 1 mM free sialic acid, three days of feeding
  cell surface incorporation detected with PToV probe: detected on the cell surface
[12]
  expression of CD22 ligand on fed cells: between the two
[13]
  incorporation on the cell membrane (DMB-HPLC): showed incorporation

## CC(=O)N[C@H]1[C@H]([C@H](O)[C@H](O)COC(C)=O)O[C@@](O[C@H]2[C@@H](O)[C@@H](CO)O[C@@H](O[C@H]3[C@H](O)[C@@H](O)[C@H](OCCCN)O[C@@H]3CO)[C@@H]2O)(C(=O)O)C[C@@H]1O [Neu5,9Ac2α3Galβ4GlcβProNH2]
[14]
  binding of PToV on glycan microarray: slightly stronger binding to the 9OAc derivative
[15]; AUS treatment followed by DMB derivatization at low temperature (FIG. 2B)
  loss of the OAc group: 1.5%
[15]; release of sialic acids with acetic acid, DMB derivatization, HPLC (FIG. 2A)
  OAc group lost from the 9-position of Neu5Ac or migrated to 7- and 8-positions: ~45%
[15]; standard blocking condition (ethanolamine in Tris-HCl buffer, pH 9.0)
  sialic acid de-O-acetylated: about 5%
[15]; stock solution after three months at −20° C. and a few freeze-thaw cycles
  OAc group released: 4%
[15]; storage in phosphate buffer (pH 8.4) at room temperature
  loss of OAc: about 3%
[16]
  stability of the 9-modification towards esterase active PToV: esterase lability of 9OAc
[17]
  binding of hSiglec-9 on glycan microarray: observable binding

## CC(=O)NC[C@@H](O)[C@@H](O)[C@@H]1O[C@@](O[C@H]2[C@@H](O)[C@@H](CO)O[C@@H](O[C@H]3[C@H](O)[C@@H](O)[C@H](OCCCN)O[C@@H]3CO)[C@@H]2O)(C(=O)O)C[C@H](O)[C@H]1NC(C)=O [Neu5Ac9NAcα3Galβ4GlcβProNH2, 3-Aminopropyl O-(5,9-Diacetamido-3,5,9-trideoxy-D-glycero-α-D-galacto-2-nonulopyranosylonic acid)-(2→3)-O-β-D-galactopyranosyl-(1→4)-β-D-glucopyranoside]
[14]
  binding of PToV on glycan microarray: prefer binding
[16]
  stability of the 9-modification towards esterase active PToV: stability of 9NAc
[17]
  binding of hSiglec-9 on glycan microarray: observable binding

## CC(=O)N[C@H]1[C@H]([C@H](O)[C@H](O)CO)OC(O)(C(=O)O)C[C@@H]1O (stereo partly drawn) [Neu5Ac, N-acetylneuraminic acid]
[12]
  expression of CD22 ligand on fed cells: high expression of CD22 ligand
[13]
  incorporation on the cell membrane (DMB-HPLC): showed incorporation

## CC(=O)N[C@H]1[C@H]([C@H](O)[C@H](O)CO)O[C@@](O[C@H]2[C@@H](O)[C@@H](CO)O[C@@H](O[C@H]3[C@H](O)[C@@H](O)[C@H](OCCCN)O[C@@H]3CO)[C@@H]2O)(C(=O)O)C[C@@H]1O [Neu5Acα3Galβ4GlcβProNH2]
[17]
  binding of hSiglec-9 on glycan microarray: prefers binding
